Source: patent US20190125646A1, “ORAL COMPOSITION FOR TOOTH WHITENING PRODUCT, AND KIT COMPRISING SAME” (LG HOUSEHOLD & HEALTH CARE LTD., priority 2013, published 2019)
Entries after “also recorded” stand apart in the source; their conditions may differ.

How the values were obtained:
[1] = Brightness variation (Experimental Example 4); settings: gel first agent plus hydrogen peroxide 3.0% patch on stained HAP disk, removed after 1 hour; FIG. 4
Experimental: Comparative examples 3 through 8 and example 5 were each attached to a stained HAP disk and were removed after 1 hour, and variations relative to initial brightness were measured and were indicated as ΔL.

[2] = Survey evaluation related to irritation (Experimental Example 3); type: in vivo; settings: subjects' own evaluation after use, score 0-3; FIG. 3
Description: After using comparative example 2 and examples 1 and 2, each subject was allowed to evaluate the degree of irritation on a 3-point scale according to the following evaluation criteria.
2: Certainly sensible irritation.
3: Stop using due to irritation

Row | Molecule | whitening effect (variation relative to initial brightness, ΔL) [1] | degree of irritation (survey, 3-point scale) [2]
1 | iron chloride | highest tooth whitening effect; also recorded: remarkably superior effect than other metal ions | more severe
2 | NCCS(=O)(=O)O [taurine] |  | significantly reduced
